The text below walks through data of publication PMC4718068 (Translation, 2013).

Experiment [1] concerns the target EF-G (Escherichia coli, UniProt P0A6M8). Description: equilibrium titration, Trp fluorescence. It is filed as binding.
Experiment [2] deals with EF-G (Escherichia coli, UniProt P0A6M8, H92A). Description: equilibrium titration, Trp fluorescence. It is filed as binding.
The target in experiment [3] is Ribosomes from E. coli MRE 600 (E. coli MRE 600) (UniProt P0AG67). The experiment in a line: stopped-flow fluorescence of mant-nucleotide excited by FRET from Trp of EF-G.

Sequence of EF-G (Escherichia coli, UniProt P0A6M8) (P0A6M8 2-704): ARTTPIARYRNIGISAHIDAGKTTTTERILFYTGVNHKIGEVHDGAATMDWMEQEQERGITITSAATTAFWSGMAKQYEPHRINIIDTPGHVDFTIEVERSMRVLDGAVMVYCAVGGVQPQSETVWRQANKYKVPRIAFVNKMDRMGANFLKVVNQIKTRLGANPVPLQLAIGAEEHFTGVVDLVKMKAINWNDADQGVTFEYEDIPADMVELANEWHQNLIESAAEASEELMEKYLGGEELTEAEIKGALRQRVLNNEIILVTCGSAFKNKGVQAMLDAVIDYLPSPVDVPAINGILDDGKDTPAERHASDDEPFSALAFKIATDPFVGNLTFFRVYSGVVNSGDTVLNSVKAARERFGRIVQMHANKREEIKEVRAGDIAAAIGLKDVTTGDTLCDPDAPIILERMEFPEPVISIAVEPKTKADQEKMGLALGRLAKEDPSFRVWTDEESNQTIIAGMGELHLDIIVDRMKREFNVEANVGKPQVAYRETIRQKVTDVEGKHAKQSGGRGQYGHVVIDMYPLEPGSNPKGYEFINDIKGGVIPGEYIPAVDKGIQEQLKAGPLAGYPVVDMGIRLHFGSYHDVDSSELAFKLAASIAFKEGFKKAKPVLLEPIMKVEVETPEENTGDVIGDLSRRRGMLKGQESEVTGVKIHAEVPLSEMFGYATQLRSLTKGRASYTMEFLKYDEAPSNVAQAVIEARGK
Sequence of EF-G (Escherichia coli, UniProt P0A6M8, H92A) (P0A6M8 2-704 H92A): as the sequence (P0A6M8 2-704) above, with H91A counted along it

Consider `Nc1nc2c(ncn2[C@@H]2O[C@H](COP(=O)(O)OP(=O)(O)OP(=O)(O)O)[C@@H](O)[C@H]2O)c(=O)[nH]1` [GTP], for which the Kd on EF-G [1] and on EF-G [2] was 1000 to 2000 nM each time.

In experiment [3], EF-G(H91A) (enzyme) yielded a rate of formation of the ribosome–EF-G-mant-GTP complex of 1 s⁻¹.
